This is an account of results in the supplement of paper PMC6965134.

± gives the standard deviation of the averaged measurements.

This series is described as follows: TIMS collisional cross section (CCS, N2) of the lipid ion; higher = larger ion cross section. The note with it: ionization mode: positive, one isomer drawn.

Consider `CC/C=C\C/C=C\C/C=C\C/C=C\C/C=C\CCCCCC(=O)OC[C@@H](COC(=O)CCCCCCC/C=C\CCCCCCCC)OC(=O)CCCCCCC/C=C\CCCCCCCC` [TG 18:1_18:1_22:5] (ion (formula + adduct): [C61H104O6+NH4] 1+), for which the “TIMS collisional cross section” value (sample type: HeLa) is 332.3 Å² and the “TIMS collisional cross section” value (sample type: plasma) was determined as 332.6 Å².

In the case of `CC/C=C\C/C=C\C/C=C\C/C=C\CCCCC(=O)O[C@H](COC(=O)CCCCCCC/C=C\CCCCCCCC)COP(=O)([O-])OCC[N+](C)(C)C` [PC 18:1@_18:4] (ion (formula + adduct): [C44H78NO8P+H] 1+), the “TIMS collisional cross section” value (sample type: HeLa) stood at 289.4 Å².

Consider `CC/C=C\C/C=C\C/C=C\C/C=C\C/C=C\CCCC(=O)OC[C@@H](O)COP(=O)([O-])OCC[N+](C)(C)C` [LPC 20:5_0:0] (ion (formula + adduct): [C28H48NO7P+H] 1+), for which the “TIMS collisional cross section” value (sample type: plasma) was found to be 226.4 Å². On to `CC/C=C\C/C=C\C/C=C\C/C=C\C/C=C\C/C=C\CCC(=O)OC[C@H](COP(=O)(O)OCCN)OC(=O)CCCCCCCCCCCCCCCCCCC` [PE 22:6_20:0] (ion (formula + adduct): [C47H82NO8P+H] 1+), for which, for the setting “sample type: Liver”, the “TIMS collisional cross section” value came to 292.6 Å². Take `CCCCCCCCCCCCC/C=C/[C@@H](O)[C@H](COP(=O)([O-])OCC[N+](C)(C)C)NC(=O)CCCCCCCCCCCCC` [SM d18:1_14:0@] (ion (formula + adduct): [C37H75N2O6P+H] 1+): the “TIMS collisional cross section” value (sample type: HeLa) amounted to 279.1 Å². Turning to `CCCCC/C=C\C/C=C\C/C=C\C/C=C\CCCC(=O)OC[C@@H](COC(=O)CCCCCCC/C=C\CCCCCC)OC(=O)CCC/C=C\C/C=C\C/C=C\C/C=C\CCCCC` [TG 16:1_20:4_20:4] (ion (formula + adduct): [C59H96O6+NH4] 1+), the “TIMS collisional cross section” value (sample type: HeLa) worked out at 323 Å². Take `CCCCCC/C=C\CCCCCCCC(=O)OC[C@H](COC(=O)CCCCCCCCC/C=C\CCCCCCCC)OC(=O)CCCCCCCCCCCCCCCCC` [TG 16:1_18:0_20:1] (ion (formula + adduct): [C57H106O6+NH4] 1+): for the setting “sample type: Liver”, the “TIMS collisional cross section” value is 328.2 Å².

In the case of `CCCCCCCCCCCCCCCC(=O)O[C@H](COC(=O)CCCCCCCCCCCCCC)COP(=O)([O-])OCC[N+](C)(C)C` [PC 15:0_16:0] (ion (formula + adduct): [C39H78NO8P+H] 1+), the “TIMS collisional cross section” value (sample type: HeLa) came out at 282.1 Å².

Regarding `CCCCCCC/C=C\CCCCCCCC(=O)OC[C@H](COC(=O)CCCCCCCCCCCCCCCCCC)OC(=O)CCCCCCC/C=C\CCCCCCCC` [TG 17:1_18:1_19:0] (ion (formula + adduct): [C57H106O6+NH4] 1+), the “TIMS collisional cross section” value (sample type: Liver) is reported as 328.8 Å². In the case of `CC/C=C\C/C=C\C/C=C\C/C=C\C/C=C\C/C=C\CCC(=O)OC[C@@H](COC(=O)CCCCCCC/C=C\CCCCCCCC)OC(=O)CCCCCCC/C=C\CCCCCCCCC` [TG 18:1_19:1_22:6] (ion (formula + adduct): [C62H104O6+NH4] 1+), the “TIMS collisional cross section” value (sample type: HeLa) turned out to be 334.6 Å². In the case of `CCCCCCCCCCCCCCCCCCCCCC(=O)OC[C@@H](COC(=O)CCCCCCCCCCCCCCCCC)OC(=O)CCCCCCCCCCCCCCCCC` [TG 18:0_18:0_22:0] (ion (formula + adduct): [C61H118O6+NH4] 1+), the “TIMS collisional cross section” value (sample type: Liver) is recorded as 344.1 Å².

For `CCCCC/C=C\C[C@H](O)/C=C/C=C\C/C=C\CCCC(=O)O[C@H](COC(=O)CCCCCCCCCCCCCCCCC)COP(=O)([O-])OCC[N+](C)(C)C` [Oxidized PC 18:0_20:4] (ion (formula + adduct): [C46H84NO9P+H] 1+), for the setting “sample type: plasma”, the “TIMS collisional cross section” value is listed as 296.7 Å².

As to `CCCCCCCC/C=C\CCCCCCCC(=O)OC[C@H](CO)OC(=O)CCCCCCC/C=C\CCCCCCCC` [DG 18:1_18:1_0:0] (ion (formula + adduct): [C39H72O5+NH4] 1+), the “TIMS collisional cross section” value by setting is: (sample type: HeLa) 265.2 Å²; (sample type: Liver) 265.5 Å²; (sample type: plasma) 265.9 ± 0.71 Å².
